ChEMBL document CHEMBL4823300, “Design, synthesis and anticancer activity of sulfenylated imidazo-fused heterocycles” (Bioorg Med Chem Lett, 2021)
Activity calls are given as the source filed them. The calls are words filed in the database; no cut-off is given here.

Tests used:
[1] = system: HepG2; test: Induction of apoptosis in human HepG2 cells assessed as decrease in mitochondrial membrane potential at 5 to 10 uM incubated for 48 hrs by JC-1 staining based assay relative to control; type: functional, cell-based; conditions: dose 5-10 µM
[2] = system: HepG2; test: Induction of apoptosis in human HepG2 cells assessed as late apoptotic cells at 10 uM incubated for 48 hrs by annexin V-FITC/propidium iodide (AV/PI) dual staining assay (reference value: 4.07%); type: functional
[3] = system: MDA-MB-231; test: Anticancer activity against human MDA-MB-231 cells assessed as growth inhibition incubated for 48 hrs by MTT assay; type: functional, cell-based; conditions: MDA-MB-231, 48 h
[4] = system: HepG2; test: Cell cycle arrest in human HepG2 cells assessed as accumulation at SubG1 phase at 10 uM (reference value: 7.13%); type: functional
[5] = system: HepG2; test: Induction of apoptosis in human HepG2 cells assessed as necrotic cells at 10 uM incubated for 48 hrs by annexin V-FITC/propidium iodide (AV/PI) dual staining assay (reference value: 1.06%); type: functional
[6] = system: HepG2; test: Cell cycle arrest in human HepG2 cells assessed as accumulation at G0/G1 phase at 10 uM (reference value: 92.33%); type: functional
[7] = system: HepG2; test: Induction of apoptosis in human HepG2 cells assessed as live cells at 10 uM incubated for 48 hrs by annexin V-FITC/propidium iodide (AV/PI) dual staining assay (reference value: 91.01%); type: functional
[8] = system: HepG2; test: Cell cycle arrest in human HepG2 cells assessed as accumulation at G2/M phase at 5 uM (reference value: 3.72%); type: functional
[9] = system: HepG2; test: Cell cycle arrest in human HepG2 cells assessed as accumulation at SubG1 phase at 5 uM (reference value: 7.13%); type: functional
[10] = system: HepG2; test: Cell cycle arrest in human HepG2 cells assessed as accumulation at G2/M phase at 10 uM (reference value: 3.72%); type: functional
[11] = system: HepG2; test: Induction of apoptosis in human HepG2 cells assessed as early apoptotic cells at 5 uM incubated for 48 hrs by annexin V-FITC/propidium iodide (AV/PI) dual staining assay (reference value: 3.87%); type: functional
[12] = system: HEK293; test: Anticancer activity against human HEK293 cells assessed as growth inhibition incubated for 48 hrs by MTT assay; type: cell-based; conditions: HEK293, 48 h
[13] = system: HepG2; test: Induction of apoptosis in human HepG2 cells assessed as live cells at 5 uM incubated for 48 hrs by annexin V-FITC/propidium iodide (AV/PI) dual staining assay (reference value: 91.01%); type: functional
[14] = system: U-87 MG; test: Anticancer activity against human U-87 MG cells assessed as growth inhibition incubated for 48 hrs by MTT assay; type: functional, cell-based, U-87MG ATCC
[15] = system: HeLa; test: Anticancer activity against human HeLa cells assessed as growth inhibition incubated for 48 hrs by MTT assay; type: functional, cell-based
[16] = system: HepG2; test: Cell cycle arrest in human HepG2 cells assessed as accumulation at S phase at 5 uM (reference value: 4.66%); type: functional
[17] = system: HepG2; test: Induction of apoptosis in human HepG2 cells assessed as early apoptotic cells at 10 uM incubated for 48 hrs by annexin V-FITC/propidium iodide (AV/PI) dual staining assay (reference value: 3.87%); type: functional
[18] = system: HepG2; test: Induction of apoptosis in human HepG2 cells assessed as late apoptotic cells at 5 uM incubated for 48 hrs by annexin V-FITC/propidium iodide (AV/PI) dual staining assay (reference value: 4.07%); type: functional
[19] = system: HepG2; test: Anticancer activity against human HepG2 cells assessed as growth inhibition incubated for 48 hrs by MTT assay; type: functional, cell-based; conditions: HepG2, 48 h
[20] = system: NIH3T3; test: Anticancer activity against mouse NIH3T3 cells assessed as growth inhibition incubated for 48 hrs by MTT assay; type: cell-based; conditions: NIH3T3, 48 h
[21] = system: HepG2; test: Induction of apoptosis in human HepG2 cells assessed as nuclear condensation at 5 to 10 uM incubated for 48 hrs by Hoechst staining based assay relative to control; type: functional, cell-based; conditions: dose 5-10 µM
[22] = system: HepG2; test: Cell cycle arrest in human HepG2 cells assessed as accumulation at S phase at 10 uM (reference value: 4.66%); type: functional
[23] = system: SK-MEL-28; test: Anticancer activity against human SK-MEL-28 cells assessed as growth inhibition incubated for 48 hrs by MTT assay; type: functional, cell-based; conditions: SK-MEL-28, 48 h
[24] = system: A549; test: Anticancer activity against human A549 cells assessed as growth inhibition incubated for 48 hrs by MTT assay; type: functional, cell-based; conditions: A549, 48 h
[25] = system: DU-145; test: Anticancer activity against human DU-145 cells assessed as growth inhibition incubated for 48 hrs by MTT assay; type: functional, cell-based; conditions: DU-145, 48 h
[26] = system: HepG2; test: Cell cycle arrest in human HepG2 cells assessed as accumulation at G0/G1 phase at 5 uM (reference value: 92.33%); type: functional
[27] = system: HepG2; test: Induction of apoptosis in human HepG2 cells assessed as necrotic cells at 5 uM incubated for 48 hrs by annexin V-FITC/propidium iodide (AV/PI) dual staining assay (reference value: 1.06%); type: functional

| SMILES | Activity [1] | Activity [2] [%] | IC50 [3] [µM] | Activity [4] [%] | Activity [5] [%] | Activity [6] [%] | Activity [7] [%] | Activity [8] [%] | Activity [9] [%] | Activity [10] [%] | Activity [11] [%] | IC50 [12] [µM] | Activity [13] [%] | IC50 [14] [µM] | IC50 [15] [µM] | Activity [16] [%] | Activity [17] [%] | Activity [18] [%] | IC50 [19] [µM] | IC50 [20] [µM] | also measured |
| --- | --- | --- | --- | --- | --- | --- | --- | --- | --- | --- | --- | --- | --- | --- | --- | --- | --- | --- | --- | --- | --- |
| c1ccc(Sc2c(-c3cccc4ccccc34)nc3ccccn23)cc1 | Active | 18.94 | 69.3 | 8.52 | 0.34 | 70.35 | 55.27 | 7.29 | 3.7 | 25.53 | 10.32 | > 100 | 77.51 | > 100 | 33.1 | 2.54 | 25.45 | 11.9 | 9.9 | > 100 | Activity [21]: Active; Activity [22]: 0.36%; IC50 [23]: > 100 µM; IC50 [24]: 17.9 µM; IC50 [25]: 60.6 µM; Activity [26]: 86.33%; Activity [27]: 0.26% |
| C(=C\c1nc2ccccn2c1Sc1ccccc1)/c1ccccc1 | Active | 22.5 | 25.3 | 8.65 | 0.2 | 65.4 | 51.78 | 9.73 | 7.64 | 30.69 | 16.1 | > 100 | 72.25 | 59.2 | 35.5 | 0.52 | 25.51 | 11.31 | 8.8 | > 100 | Activity [21]: Active; Activity [22]: 0.69%; IC50 [23]: 65.4 µM; IC50 [24]: 16.3 µM; IC50 [25]: 22 µM; Activity [26]: 86.58%; Activity [27]: 0.34% |
| CSc1ccc(-c2nc3ccccn3c2Sc2ccccc2)cc1 | Active | 23.93 | 23.5 | 1.57 | 0.22 | 63.48 | 48.22 | 10.85 | 11.43 | 34.97 | 18.94 | > 100 | 65.61 | 26.9 | 30 | 0.56 | 27.63 | 15.17 | 7.6 | > 100 | Activity [21]: Active; Activity [22]: 1.07%; IC50 [23]: 67.7 µM; IC50 [24]: 13.6 µM; IC50 [25]: 52.1 µM; Activity [26]: 83.03%; Activity [27]: 0.28% |
